Where two headings read alike, the source gives them in different places.
Key:
Format in all cases: biochemical
Human PDE4C = Human PDE4C (Homo sapiens (Human), UniProt Q08493); experiment: PDE4C Scintillation Proximity Assay (SPA), inhibition of enzyme activity; conditions: read-out: Human PDE4C FL
Method: (§1) The PDE4A3, PDE4B1, PDE4C1 and PDE4D3 assays use the Scintillation Proximity Assay (SPA) technology to measure the inhibition of human recombinant PDE4A1, PDE4B3, PDE4C1, and PDE4D3 enzyme activity by compounds in vitro. The PDE4A1, PDE4B3, PDE4C1, and PDE4D3 assays are run in parallel using identical parameters, except for the concentration of enzyme (80 pM PDE4A3, 40 pM PDE4B3, 40 pM PDE4C1 and 10 pM PDE4D). […] Reactions are incubated for 30 min at 25° C. The addition of 20 uL of 8 mg/ml yitrium silicate SPA beads (Perkin Elmer) stops the reaction. The plates are sealed (TopSeal, Perkin Elmer) and the beads are allowed to settle for 8 hrs, after which they are read on the Trilux Microbeta overnight.

Human PDE4D = Human PDE4D (Homo sapiens (Human), UniProt Q08499); experiment: PDE4D Scintillation Proximity Assay (SPA), inhibition of enzyme activity; conditions: read-out: Human PDE4D FL
Human PDE4A = Human PDE4A (Homo sapiens (Human), UniProt P27815); experiment: PDE4A Scintillation Proximity Assay (SPA), inhibition of enzyme activity; conditions: read-out: Human PDE4A FL
Chain of Human PDE4A (P27815 other isoform, or with tags, fused parts or gaps): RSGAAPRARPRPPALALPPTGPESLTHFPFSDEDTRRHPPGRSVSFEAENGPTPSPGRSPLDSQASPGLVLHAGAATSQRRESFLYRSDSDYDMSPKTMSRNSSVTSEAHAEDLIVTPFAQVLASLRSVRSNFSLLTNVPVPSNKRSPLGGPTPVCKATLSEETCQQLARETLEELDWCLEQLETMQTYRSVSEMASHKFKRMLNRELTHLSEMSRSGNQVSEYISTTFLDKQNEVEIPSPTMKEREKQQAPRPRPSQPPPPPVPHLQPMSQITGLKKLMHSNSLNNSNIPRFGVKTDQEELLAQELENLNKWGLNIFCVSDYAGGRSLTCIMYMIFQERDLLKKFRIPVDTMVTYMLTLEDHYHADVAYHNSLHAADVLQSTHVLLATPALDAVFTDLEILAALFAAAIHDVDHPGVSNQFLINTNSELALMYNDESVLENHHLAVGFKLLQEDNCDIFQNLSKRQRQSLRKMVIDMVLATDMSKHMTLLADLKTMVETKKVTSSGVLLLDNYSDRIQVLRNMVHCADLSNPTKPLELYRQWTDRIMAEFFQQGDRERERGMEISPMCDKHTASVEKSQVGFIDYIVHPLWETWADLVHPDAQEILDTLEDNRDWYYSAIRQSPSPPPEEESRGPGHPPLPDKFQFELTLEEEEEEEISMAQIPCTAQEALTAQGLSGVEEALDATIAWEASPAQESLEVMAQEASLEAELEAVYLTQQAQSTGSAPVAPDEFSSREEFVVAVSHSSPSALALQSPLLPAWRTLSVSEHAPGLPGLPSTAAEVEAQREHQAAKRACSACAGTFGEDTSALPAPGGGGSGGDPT
Method: as §1

[1] = human recombinant enzyme, 1 μM cAMP substrate, 30 min at 25° C., geometric mean of 2-9 determinations unless otherwise indicated

Chain of Human PDE4D (Q08499 186-808): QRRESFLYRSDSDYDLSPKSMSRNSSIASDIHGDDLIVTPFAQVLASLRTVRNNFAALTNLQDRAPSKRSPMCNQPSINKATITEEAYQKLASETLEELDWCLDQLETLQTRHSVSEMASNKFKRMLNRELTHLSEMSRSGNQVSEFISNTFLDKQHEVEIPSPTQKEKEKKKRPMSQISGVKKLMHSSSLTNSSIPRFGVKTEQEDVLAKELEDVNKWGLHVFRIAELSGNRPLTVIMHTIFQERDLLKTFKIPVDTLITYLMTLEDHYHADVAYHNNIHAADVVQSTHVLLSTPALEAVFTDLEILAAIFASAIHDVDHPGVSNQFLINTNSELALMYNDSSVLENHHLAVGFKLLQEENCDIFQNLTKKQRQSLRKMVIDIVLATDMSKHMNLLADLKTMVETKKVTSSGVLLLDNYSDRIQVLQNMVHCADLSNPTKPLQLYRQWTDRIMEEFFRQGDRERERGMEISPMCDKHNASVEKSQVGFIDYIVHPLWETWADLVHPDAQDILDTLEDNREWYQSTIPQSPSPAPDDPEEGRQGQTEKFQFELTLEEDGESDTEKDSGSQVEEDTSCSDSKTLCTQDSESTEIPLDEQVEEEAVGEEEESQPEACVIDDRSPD
Chain of Human PDE4C (Q08493 2-712): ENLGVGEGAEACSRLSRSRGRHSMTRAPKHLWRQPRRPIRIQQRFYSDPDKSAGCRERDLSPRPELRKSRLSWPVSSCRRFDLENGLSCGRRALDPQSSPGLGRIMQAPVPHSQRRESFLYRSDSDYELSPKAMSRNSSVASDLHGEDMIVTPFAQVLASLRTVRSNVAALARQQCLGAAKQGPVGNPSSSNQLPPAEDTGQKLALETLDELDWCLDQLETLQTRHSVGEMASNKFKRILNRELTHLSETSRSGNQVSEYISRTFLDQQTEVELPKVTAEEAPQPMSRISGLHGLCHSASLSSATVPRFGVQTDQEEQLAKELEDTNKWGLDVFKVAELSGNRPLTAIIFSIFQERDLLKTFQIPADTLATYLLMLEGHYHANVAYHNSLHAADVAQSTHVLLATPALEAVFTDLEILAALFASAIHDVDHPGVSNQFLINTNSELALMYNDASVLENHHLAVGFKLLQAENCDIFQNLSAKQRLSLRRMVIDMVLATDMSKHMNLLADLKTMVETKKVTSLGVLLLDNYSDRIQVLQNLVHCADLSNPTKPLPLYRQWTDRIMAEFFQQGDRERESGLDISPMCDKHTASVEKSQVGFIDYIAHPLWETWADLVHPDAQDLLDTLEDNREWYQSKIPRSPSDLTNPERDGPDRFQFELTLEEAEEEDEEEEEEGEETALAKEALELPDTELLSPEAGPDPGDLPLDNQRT

Structure (SMILES)	IC50 (Human PDE4C)	IC50 (Human PDE4D)	IC50 (Human PDE4A)	IC50 (Human PDE4A; [1])	IC50 (Human PDE4C; [1])	IC50 (Human PDE4D; [1])
O=C(c1nc2cccnn2c1-c1ccc(Cl)cc1)N1CCC1 [Example 1, Azetidin-1-yl[3-(4-chlorophenyl)imidazo[1,2-b]pyridazin-2-yl]methanone]	130 nM	10300 nM				
O=C(NC1CC1)c1nc2cccnn2c1-c1ccc(Cl)cc1 [Example 2, 3-(4-Chlorophenyl)-N-cyclopropylimidazo[1,2-b]pyridazine-2-carboxamide]	27.9 nM	4340 nM	10.7 nM			
COc1c(F)cc(-c2c(C(=O)N3CCC3)nc3cccnn23)cc1F [Example 3, Azetidin-1-yl[3-(3,5-difluoro-4-methoxyphenyl)imidazo[1,2-b]pyridazin-2-yl]methanone]	51.9 nM	2410 nM	12.7 nM			
N#Cc1ccc(-c2c(C(=O)NC3CC3)nc3cccnn23)cn1 [Example 5, 3-(6-Cyanopyridin-3-yl)-N-cyclopropylimidazo[1,2-b]pyridazine-2-carboxamide]		> 26600 nM		40.2 nM	208 nM	
Cn1cc(NC(=O)c2nc3cccnn3c2-c2ccc(Cl)c(F)c2)cn1 [Example 7, 3-(4-Chloro-3-fluorophenyl)-N-(1-methyl-1H-pyrazol-4-yl)imidazo[1,2-b]pyridazine-2-carboxamide]	2.35 nM	34.5 nM	2.77 nM			
O=C(c1nc2cccnn2c1-c1ccc2ccnn2c1)N1CCC1 [Example 8, Azetidin-1-yl[3-(pyrazolo[1,5-a]pyridin-6-yl)imidazo[1,2-b]pyridazin-2-yl]methanone]				20 nM		5440 nM
O=C(NC1CC1)c1nc2cccnn2c1-c1cc(F)c(Cl)cc1F [Example 9, 3-(4-Chloro-2,5-difluorophenyl)-N-cyclopropylimidazo[1,2-b]pyridazine-2-carboxamide]				3.83 nM	40.9 nM	1490 nM
O=C(NC1CC1)c1nc2cccnn2c1-c1ccc(Cl)c(F)c1 [Example 10, 3-(4-chloro-3-fluorophenyl)-N-cyclopropylimidazo[1,2-b]pyridazine-2-carboxamide]				1.51 nM	6.84 nM	590 nM
Cc1cc(Cl)ccc1-c1c(C(=O)NC2CC2)nc2cccnn12 [Example 12, 3-(4-chloro-2-methylphenyl)-N-cyclopropylimidazo[1,2-b]pyridazine-2-carboxamide]				14.4 nM	89.6 nM	5220 nM
O=C(c1nc2cccnn2c1-c1ccc(Cl)c(F)c1)N1CCC1 [Example 13, azetidin-1-yl[3-(4-chloro-3-fluorophenyl)imidazo[1,2-b]pyridazin-2-yl]methanone]				5.13 nM	17.3 nM	669 nM
O=C(NC1CC1)c1nc2cccnn2c1-c1cncc(Cl)c1 [Example 14, 3-(5-chloropyridin-3-yl)-N-cyclopropylimidazo[1,2-b]pyridazine-2-carboxamide]				73.7 nM	108 nM	> 8010 nM
Cc1cc(-c2c(C(=O)N3CCC3)nc3cccnn23)c(F)cc1C#N [Example 18, 4-[2-(azetidin-1-ylcarbonyl)imidazo[1,2-b]pyridazin-3-yl]-5-fluoro-2-methylbenzonitrile]				55 nM	147 nM	8200 nM
Cc1cc(C#N)c(F)cc1-c1c(C(=O)N2CCC2)nc2cccnn12 [Example 20, 4-[2-(azetidin-1-ylcarbonyl)imidazo[1,2-b]pyridazin-3-yl]-2-fluoro-5-methylbenzonitrile]				6.7 nM	74.8 nM	490 nM
O=C(NC1CC1)c1nc2cccnn2c1-c1ccc2ccnn2c1 [Example 22, N-cyclopropyl-3-(pyrazolo[1,5-a]pyridin-6-yl)imidazo[1,2-b]pyridazine-2-carboxamide]				27.6 nM	71.2 nM	1890 nM
N#Cc1ccc(-c2c(C(=O)N3CCC3)nc3cccnn23)cc1F [Example 23, 4-[2-(azetidin-1-ylcarbonyl)imidazo[1,2-b]pyridazin-3-yl]-2-fluorobenzonitrile]				15.1 nM	45.8 nM	4130 nM
N#Cc1cc(F)c(-c2c(C(=O)N3CCC3)nc3cccnn23)cc1F [Example 24, 4-[2-(azetidin-1-ylcarbonyl)imidazo[1,2-b]pyridazin-3-yl]-2,5-difluorobenzonitrile]				5.04 nM	59.7 nM	> 2150 nM
CNC(=O)c1nc2cccnn2c1-c1cc(F)c(Cl)cc1C [Example 25, 3-(4-chloro-5-fluoro-2-methylphenyl)-N-methylimidazo[1,2-b]pyridazine-2-carboxamide]				38.6 nM	150 nM	4970 nM
CCCNC(=O)c1nc2cccnn2c1-c1ccc(Cl)cc1 [Example 26, 3-(4-chlorophenyl)-N-propylimidazo[1,2-b]pyridazine-2-carboxamide]				85.5 nM	111 nM	3800 nM
CCCNC(=O)c1nc2cccnn2c1-c1cc(Cl)cc(Cl)c1 [Example 28, 3-(3,5-dichlorophenyl)-N-propylimidazo[1,2-b]pyridazine-2-carboxamide]				15.6 nM	49 nM	393 nM
CCCNC(=O)c1nc2cccnn2c1-c1ccc(Cl)c(F)c1 [Example 29, 3-(4-chloro-3-fluorophenyl)-N-propylimidazo[1,2-b]pyridazine-2-carboxamide]				3.48 nM	13.8 nM	409 nM
CC1CC1NC(=O)c1nc2cccnn2c1-c1ccc(Cl)cc1 (stereo not shown) [Example 30, 3-(4-chlorophenyl)-N-(2-methylcyclopropyl)imidazo[1,2-b]pyridazine-2-carboxamide]				11.6 nM	24.5 nM	4000 nM
COC1CN(C(=O)c2nc3cccnn3c2-c2ccc(Cl)cc2)C1 [Example 31, [3-(4-chlorophenyl)imidazo[1,2-b]pyridazin-2-yl](3-methoxyazetidin-1-yl)methanone]				2820 nM	5810 nM	< 26200 nM
CN(C(=O)c1nc2cccnn2c1-c1ccc(Cl)cc1)C1CC1 [Example 32, 3-(4-chlorophenyl)-N-cyclopropyl-N-methylimidazo[1,2-b]pyridazine-2-carboxamide]				1030 nM	469 nM	> 30000 nM
CC1(NC(=O)c2nc3cccnn3c2-c2ccc(Cl)cc2)CC1 [Example 33, 3-(4-chlorophenyl)-N-(1-methylcyclopropyl)imidazo[1,2-b]pyridazine-2-carboxamide]				58.6 nM	127 nM	2330 nM
O=C(NC1CC1)c1nc2cccnn2c1-c1cc(F)cc(Cl)c1 [Example 35, 3-(3-chloro-5-fluorophenyl)-N-cyclopropylimidazo[1,2-b]pyridazine-2-carboxamide]				35.7 nM	37 nM	1220 nM
O=C(NC1CC1)c1nc2cccnn2c1-c1cccc(Cl)c1 [Example 36, 3-(3-chlorophenyl)-N-cyclopropylimidazo[1,2-b]pyridazine-2-carboxamide]				23.7 nM	21 nM	254 nM
O=C(NC12CC(C1)C2)c1nc2cccnn2c1-c1ccc(Cl)cc1 [Example 37, N-(bicyclo[1.1.1]pent-1-yl)-3-(4-chlorophenyl)imidazo[1,2-b]pyridazine-2-carboxamide]				127 nM	161 nM	2570 nM
